US20200031920A1, “Combination Therapy for Treating Cancer” (The George Washington University, priority 2017, published 2020)

Key:
[1] = tested on: SKOV3 CR cells; assay: cell viability / proliferation (SRB) assay, cisplatin resistant SKOV3 CR cells; assay type: cell-based; settings: for sensitization of SKOV3 CR cells to cisplatin (proliferation): combination with cisplatin at different doses, FIG. 13: 0.4 μM LY2784544, five days; for medium CI (combination index): combination with cisplatin, CI<1 synergism
Description: (§1) FIG. 1 is a line graph showing the proliferation of SKOV3 parental and SKOV3 CR cells treated with increasing concentrations of cisplatin for five days. Data are represented as mean±SD from three independent experiments performed in triplicate. Indicated IC50 values represent the mean of two independent experiments performed in triplicate.
(§2) FIG. 13 is a line graph showing the proliferation of SKOV3 parental and SKOV3 CR cells treated with increasing concentrations of cisplatin and 0.4 μM LY2784544 for five days. Data are represented as mean±SD from three independent experiments performed in triplicate.
(§3) Cisplatin resistant ovarian cancer cell lines were generated using procedures as described previously. Jazaeri et al., Mol Cancer Ther 12: 1958-1967 (2013). Ovarian cancer cells SKOV3 were cultured in the medium with cisplatin (Sigma-Aldrich) for three weeks, followed by release to cisplatin-free medium for another three weeks. In the next cycle, the cisplatin treatment was repeated in the medium with an increased concentration of cisplatin. After six-cycle treatment, cells were identified that were able to grow in the medium with a high concentration of cisplatin. These cisplatin resistant cells were named as SKOV3 CR (FIG. 1).
(§4) The results obtained from combinational HTS were confirmed by testing whether LY2784544 overcomes cisplatin resistance in ovarian cancer cells using multiple assays. […] The Combination index (CI), which quantitatively describes the interaction between drugs including synergism (CI<1), additive effect (CI=1), and antagonism (CI>1), was calculated.

[2] = tested on: SKOV3 CR cells; assay: combinational high throughput screen with cisplatin; assay type: cell-based; settings: in combination with DMSO, 1 μM cisplatin or 20 μM cisplatin
From the text: A combinational HTS using multiple compound libraries including NPC (NIH Pharmaceutical Collection), MIPE (Mechanism interrogation plate), and LOPAC (The Library of Pharmacologically Active Compounds) was used to identify compounds that can overcome cisplatin resistance of SKOV3 CR cells (FIG. 5). The library of pharmacologically active compounds (LOPAC®) of 1280 compounds (1) was purchased from Sigma. The NCGC Pharmaceutical Collection (NPC) of 2816 compounds and mechanism interrogation plate (MIPE) library of 1920 compounds were previously described. Bromberg, J Clin Invest 109: 1139-1142 (2002) and Buchert et al., Oncogene 35: 939-951 (2016). Compounds from all libraries were obtained as powder and dissolved in dimethyl sulfoxide (DMSO) […]. Combinational HTS was performed as previously described. Szasz et al., Oncotarget 7: 49322-49333 (2016). A total of 6,016 compounds were screened. […] In the second screen, these 112 compounds were selected for a dose-response confirmation screen in combination with DMSO, 1 μM cisplatin or 20 μM cisplatin (FIG. 5).

[3] = tested on: SKOV3 cells; assay: cell viability / proliferation (SRB) assay, SKOV3 parental cells; assay type: cell-based
Description: as §1, §2, §3, §4

[4] = tested on: phosphorylation of JAK2 (Y1007/1008) and STAT5 (Y694); assay: western blot of JAK2/STAT5 signaling; assay type: cell-based
Description: FIG. 22 is an illustration showing that LY2784544 down-regulates JAK2/STAT5 signaling in SKOV3 CR cells. Cells were treated with the indicated concentrations of LY2784544 for 48 hr.
FIG. 23 is an illustration showing the immunoblotting for the indicated targets in SKOV3 CR cells treated with vehicle (DMSO), 3 μM LY2784544, 5 μM cisplatin, or the combination for 48 hr.
To investigate the molecular mechanism by which the JAK2-mediated pathway regulates cisplatin resistance of ovarian cancer, the activation of the JAK2-mediated pathway in paired sensitive cell line (SKOV3, IGROV1, PEO1) and resistant cell lines (SKOV3 CR, IGROV1 CR, PEO4) was examined by western blot. Compared to cisplatin sensitive cells SKOV3 or IGROV1, the JAK2 protein levels are not changed in cisplatin resistant cells SKOV3 CR, IGROV1 CR, or PEO4.
The effects of LY2784544 on the JAK2/STAT5 signaling pathway in both SKOV3 and SKOV3 CR cells were examined.

[5] = tested on: IL-11; assay: IL-11 secretion by ELISA in cell culture medium; assay type: cell-based, human; settings: 24 hr
Description: (§5) FIG. 69 are bar graphs ((A)-(C) and (E)-(F)) and illustrations ((D) and (G)) showing that reactive oxygen species (ROS) induces IL-11 expression. (A) is a bar graph showing quantification of ROS production in SKOV3 and SKOV3 CR cells. Data are represented as means±SD from three independent experiments. **p<0.01. Scale bar, 100 μm. (B) is a bar graph showing quantification of ROS production in SKOV3 CR cells after treatment with the ROS inhibitor YCG063 at 20 μM for 24 hr. Data are represented as means±SD from three independent experiments. ***p<0.001. (C) is a bar graph showing IL-11 levels measured by ELISA in the medium of SKOV3 CR cells treated with YCG063 at 20 μM for 24 hr. Data are represented as mean±SD from three independent experiments performed in triplicate. ***p<0.001. (D) is an illustration showing an immunoblot of phosphorylated JAK2 and STAT5 in SKOV3 CR cells treated with YCG063 (20 μM) for 24 hr. (E) is a bar graph showing quantification of ROS production in SKOV3 cells after treated with the ROS inhibitor YCG063 (20 μM), cisplatin (1 μM), or both for 24 hr. Data are represented as means±SD from three independent experiments. **p<0.01, ***p<0.001, n.s. means not significant by one-way ANOVA. (F) is a bar graph showing IL-11 levels measured by ELISA in SKOV3 cells treated with YCG063 (20 μM), cisplatin (1 μM) or both for 24 hr. Data are represented as mean±SD from three independent experiments performed in triplicate. ***p<0.001 by one-way ANOVA. (G) is an illustration showing an immunoblot of phosphorylated JAK2 and STAT5 in SKOV3 CR cells treated with YCG063 (20 μM), cisplatin (1 μM) or both for 24 hr.
Next, the factor from medium that contributes to cisplatin resistance of SKOV3 CR cells was investigated. […] The cell-free culture medium, mouse serum, and patient serum were analyzed for IL-11 levels using a human IL-11 ELISA kit (R&D Systems) according to the manufacturer's instructions. The absorbance was read at 450 nm using a microplate reader (BioTek). The data were normalized to the cell number. […]

[6] = tested on: reactive oxygen species (ROS); assay: ROS production (CellROX Orange reagent); assay type: cell-based; settings: SKOV3 cells, YCG063 20 μM, cisplatin 1 μM, 24 hr
Description: as §5, with “(D) is an illustration showing an immunoblot of phosphorylated JAK2 and STAT5 in SKOV3 CR cells treated with YCG063 (20 μM) for 24 hr.” left out, “Data are represented as means±SD from three independent experiments. **p<0.01, ***p<0.001, n.s. means not significant by one-way ANOVA.” left out, “Data are represented as mean±SD from three independent experiments performed in triplicate. ***p<0.001 by one-way ANOVA. (G) is an illustration showing an immunoblot of phosphorylated JAK2 and STAT5 in SKOV3 CR cells treated with YCG063 (20 μM), cisplatin (1 μM) or both for 24 hr.” left out
DNA damage induces generation of reactive oxygen species (ROS). […] ROS was detected with a live cell-permeable, fluorophore CellROX Orange reagent (Thermo Fisher Scientific) according to the manufacturer's instructions. […] ROS intensity was analyzed using ImageJ (NIH) software. […]

[7] = tested on: FRA1; assay: immunoblot of phosphorylated and total FRA1; assay type: cell-based; settings: SKOV3 CR cells, 20 μM, 24 hr
From the text: FIG. 70 are illustrations ((A), (B), and (D)) and a bar graph (C) showing that ROS induces IL-11 expression by promoting expression of FOSL1 (FRA1). (A) is an illustration showing total and phosphorylated levels of FRA1 in SKOV3 and SKOV3 CR cells. […] (C) is a bar graph showing IL-11 levels measured by ELISA in the medium of SKOV3 CR cells transfected with FOSL1 siRNA for 48 hr. Data are represented as mean±SD from three independent experiments performed in triplicate. ***p<0.001. (D) is an illustration showing an immunoblot of phosphorylated and total FRA1 protein in SKOV3 CR cells treated with YCG063 20 μM for 24 hr.
To achieve this goal, pathway analyses using PathwayNet were conducted, which identified a total of 20 transcription factors that likely regulate IL-11. […] It was next tested whether ROS is required for activation or expression of FRA1 by treating SKOV3 CR cells with YGC063.

## NS(=O)(=O)OC[C@@H]1C[C@@H](n2ccc3c(N[C@H]4CCc5ccccc54)ncnc32)C[C@@H]1O [MLN4924]
[1]
  sensitization of SKOV3 CR cells to cisplatin (proliferation): can sensitize SKOV3 CR cells to cisplatin
[2]
  sensitization to cisplatin in second (dose-response confirmation) screen: significantly sensitize SKOV3 CR cells to cisplatin

## N.N.O=C([O-])C1(C(=O)[O-])CCC1.[Pt+2] [carboplatin]
[3]; SKOV3 parental cells, 5 days
  IC50: 25.2 µM
[1]; 5 days
  fold increase of IC50, SKOV3 CR compared to parental SKOV3: 4 fold
[1]; SKOV3 CR cells, 5 days
  IC50: 118 µM

## Cc1cnc(Nc2ccc(OCCN3CCCC3)cc2)nc1Nc1cccc(S(=O)(=O)NC(C)(C)C)c1 [TG101348]
[1]; SKOV3 CR cells
  medium CI (combination index): 0.77

## C/C(=N\NC(=S)N1CCC1)c1ccccn1 [NSC319726]
[1]
  sensitization of SKOV3 CR cells to cisplatin (proliferation): can sensitize SKOV3 CR cells to cisplatin
[2]
  sensitization to cisplatin in second (dose-response confirmation) screen: significantly sensitize SKOV3 CR cells to cisplatin

## Cc1cnc(Nc2ccc(CN3CCOCC3)cc2)nc1Nc1cccc(S(=O)(=O)NC(C)(C)C)c1 [TG46]
[1]; SKOV3 CR cells
  medium CI (combination index): 0.77

## CCCCCOc1ccc(/C=N/NC(=O)CSc2c([N+](=O)[O-])ncn2C)cc1 [YCG063]
[4]; SKOV3 CR cells, YCG063 20 μM, 24 hr
  phosphorylation of JAK2 and STAT5: significantly reduced
[5]; SKOV3 CR cells, YCG063 20 μM
  IL-11 secretion: significantly reduced IL-11 secretion
[5]; SKOV3 cells, YCG063 20 μM with cisplatin 1 μM
  cisplatin-induced IL-11 secretion: suppressed cisplatin-induced IL-11 secretion
[6]
  ROS production: suppressed ROS production in SKOV3 cells
[7]
  expression and phosphorylation of FRA1: reduced the expression of FRA1 as well as its phosphorylation

B1: recombinant IL-11: recombinant human IL-11 (R&D Systems) (protein, UniProt P20809 22-199, looked up)
Interleukin-11: PGPPPGPPRVSPDPRAELDSTVLLTRSLLADTRQLAAQLRDKFPADGDHNLDSLPTLAMSAGALGALQLPGVLTRLRADLLSYLRHVQWLRRAGGSSLKTLEPELGTLQARLDRLLRRLQLLMSRLALPQPPPDPPAPPLAPPSSAWGGIRAAHAILGGLHLTLDWAVRGLLLLKTRL
[3]; IL-11 for 4 hr then cisplatin 5 days
  resistance of SKOV3 cells to cisplatin (proliferation): significantly increased its resistance to cisplatin
[4]; SKOV3 parental cells, 10 ng/mL IL-11 for 4 hr
  phosphorylation of JAK2 and STAT5: did increase the phosphorylation of JAK2 (Y1007/1008) as well as phosphorylation of STAT5 (Y694)
